Assay results taken from PubChem BioAssay (NCI).
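These data come from cells grown in 96-well plates and exposed to compound for 48 hours at five concentrations. GI50: concentration for 50% inhibition of growth. TGI marks complete inhibition of growth.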

Assays:
Assay in all cases: DTP human tumour cell line panel, 48 h
ACHN renal = system: ACHN renal
SR leukemia = system: SR leukemia
DMS 273 small cell lung = system: DMS 273 small cell lung
HCT-116 colon = system: HCT-116 colon
OVCAR-4 ovarian = system: OVCAR-4 ovarian
NCI-H522 lung = system: NCI-H522 lung
SK-MEL-2 melanoma = system: SK-MEL-2 melanoma
NCI-H226 lung = system: NCI-H226 lung
UACC-257 melanoma = system: UACC-257 melanoma
SF-539 CNS = system: SF-539 CNS

Row | SMILES | TGI (ACHN renal) [µM] | TGI (SR leukemia) [µM] | TGI (DMS 273 small cell lung) [µM] | TGI (HCT-116 colon) [µM] | TGI (OVCAR-4 ovarian) [µM] | TGI (NCI-H522 lung) [µM] | TGI (SK-MEL-2 melanoma) [µM] | TGI (NCI-H226 lung) [µM] | TGI (UACC-257 melanoma) [µM] | TGI (SF-539 CNS) [µM] | GI50 (ACHN renal) [µM] | GI50 (SR leukemia) [µM] | GI50 (DMS 273 small cell lung) [µM] | GI50 (HCT-116 colon) [µM] | GI50 (OVCAR-4 ovarian) [µM] | GI50 (NCI-H522 lung) [µM] | GI50 (SK-MEL-2 melanoma) [µM] | GI50 (NCI-H226 lung) [µM] | GI50 (UACC-257 melanoma) [µM] | GI50 (SF-539 CNS) [µM]
1 | c1ccc(C2CC(c3ccc4ccccc4c3)=Nc3ccccc3S2)cc1 (stereo not given) | 31.2 | > 100 | 48.6 | 30 | 37.5 | 33.2 | 34.6 | 42.7 | 34.9 | 31.5 | – | – | – | – | – | – | – | – | – | –
2 | CCC(=O)C(C(=O)CC)c1c(OC(=O)c2ccccc2)ccc(O)c1C(=O)OC | > 100 | > 100 | > 100 | > 100 | > 100 | > 100 | > 100 | > 100 | > 100 | > 100 | – | – | – | – | – | – | – | – | – | –
3 | COC(=O)CCC(=O)N1CC1C (stereo not given) | > 100 | > 100 | > 100 | > 100 | > 100 | > 100 | > 100 | > 100 | > 100 | > 100 | – | – | – | – | – | – | – | – | – | –
4 | O=C1C=C(Nc2ccc(S(=O)(=O)Nc3ncccn3)cc2)c2ccccc2C1=O | 70.4 | 95.9 | 68.8 | 35.9 | 38.8 | 32 | 85.2 | 56.8 | 41.7 | 58.4 | – | – | – | – | – | – | – | – | – | –
5 | CCCCCCCCCCOC(=O)c1cc[n+](C)cc1 | 33.2 | 32.7 | 31.3 | 36.6 | 33 | 30 | 49.1 | 32.7 | 34 | 29.8 | – | – | – | – | – | – | – | – | – | –
6 | CCC[CH2][Sn]([CH2]CCC)([O]C(=O)c1cccc(F)c1F)[O]C(=O)c1cccc(F)c1F | 2.55 | 3.49 | 2.33 | 2.43 | 3.31 | 0.277 | 1.46 | 2.52 | 2.28 | 2.56 | 1.28 | 0.371 | 1.11 | 1.2 | 1.86 | 0.133 | 0.41 | 1.25 | 1.09 | 1.27
7 | COc1cc2c3c(c1OC)C(=O)C=C3N(S(=O)(=O)c1ccc(C)cc1)CC2 | > 100 | > 100 | > 100 | > 100 | > 100 | 38.6 | > 100 | > 100 | > 100 | > 100 | – | – | – | – | – | – | – | – | – | –
8 | COC(=O)/C(=C/c1ccc(OC)cc1)C(C(=O)O)=C1CCCCC1 | > 100 | > 100 | > 100 | > 100 | > 100 | > 100 | > 100 | > 100 | > 100 | > 100 | – | – | – | – | – | – | – | – | – | –
9 | O=C(NCc1ccc2ccc3cccnc3c2n1)c1ccc[n+](Cc2ccccc2)c1 | > 100 | > 100 | > 100 | > 100 | > 100 | > 100 | > 100 | > 100 | > 100 | > 100 | – | – | – | – | – | – | – | – | – | –
